From patent US20250250298A1, “ONCOLYTIC PEPTIDE AND USE THEREOF” (Rise Biopharmaceuticals Inc., priority 2022, published 2025)
Where a SMILES comes first, the peptide text is derived from it. Where no end group is shown, it is not given here.

What was measured:
HFW (Human fibroblast) = assay: MTT cytotoxicity, HFW; type: cell-based; conditions: 24 hours incubation
From the text: (§1) The MTT assay is a colorimetric method for measuring the activity of enzymes in living cells that reduces Thiazolyl blue tetrazolium bromide (MTT) to formazan dyes showing a purple color. In this embodiment, a colorimetric 3-(4.5-dimethylthiazol-2-yl)-2.5-diphenyltetrazodium bromide (MTT) viability assay was used to assess the in vitro cytotoxicity of oncolytic peptides.
(§2) The half inhibition concentration (IC50) is the concentration required by the oncolytic peptides to reach fifty percent inhibition. In one embodiment, the oncolytic peptides were used for IC50 test via MTT colorimetric assay.
(§3) Human lung cancer lines PC9 and A549 and murine pancreatic cancer cell line Panc02 were cultured in RPMI medium supplemented with 10% fetal bovine serum and antibiotic in this embodiment. Additionally, murine hepatoma cell line Hepa 1-6, murine melanoma cell line B16-F10, murine fibrosarcoma cell line MN-11, murine mammary cancer cell line E0771 and human diploid fibroblast (HFW) were cultured in DMEM medium supplemented with 10% fetal bovine serum and antibiotic. Cells were cultured in a humidified incubator containing 5% CO2 at 37° C.
(§4) All cancer cell lines were seeded in a 96-well plate with a concentration of 5000-8000 cells/100 μl/well and incubated for 24 hrs. After medium was removed, 100 μl fresh medium containing peptide (ranging from 50 μM to 0.8 μM) was added to the wells. Following 24 hours incubation, fresh medium with MTT (0.5 mg/ml) was replaced and incubated for 3 hours. After medium/MTT was removed, DMSO was added at 100 μl for dissolving the formazan crystal. Cell survival rate was calculated by measuring the absorbance at 540 nm using a Multi-labeled Microplate Reader (Sunrise™, TECAN).

[1] = system: HUVEC (Human Umbilical Vein Endothelial (Cell)); assay: MTT cytotoxicity, HUVEC; type: cell-based; conditions: 24 hours incubation
From the text: as §1, §2, §4

[2] = system: EO771 (Murine mammary adenocarcinoma); assay: MTT cytotoxicity, EO771; type: cell-based; conditions: EO771, 24 hours incubation
From the text: as §1, §2, §3, §4

[3] = system: Hepa I-6 (Murine hepatocellular carcinoma); assay: MTT cytotoxicity, Hepa 1-6; type: cell-based; conditions: Hepa I-6, 24 hours incubation
From the text: as §1, §2, §3, §4

[4] = system: B16-F10 (Murine skin malignant melanoma); assay: MTT cytotoxicity, B16-F10; type: cell-based; conditions: B16-F10, 24 hours incubation
From the text: as §1, §2, §3, §4

[5] = system: MN-11 (Murine fibrosarcoma); assay: MTT cytotoxicity, MN-11; type: cell-based; conditions: MN-11, 24 hours incubation
From the text: as §1, §2, §3, §4

Panc02 = assay: MTT cytotoxicity, Panc02; type: cell-based, murine; conditions: Panc02, 24 hours incubation
From the text: as §1, §2, §3, §4

[6] = system: PC9 (Human non-small cell lung cancer cell); assay: MTT cytotoxicity, PC9; type: cell-based; conditions: PC9, 24 hours incubation
From the text: as §1, §2, §3, §4

[7] = system: A549 (Human non-small cell lung cancer cell); assay: MTT cytotoxicity, A549; type: cell-based; conditions: A549, 24 hours incubation
From the text: as §1, §2, §3, §4

[8] = system: C9 (Human oral cancer cell); assay: MTT cytotoxicity, C9; type: cell-based; conditions: C9, 24 hours incubation
From the text: as §1, §2, §4

[9] = system: OECM-1 (Human oral cancer cell); assay: MTT cytotoxicity, OECM-1; type: cell-based; conditions: OECM-1, 24 hours incubation
From the text: as §1, §2, §4

[10] = system: SAS (Human tongue carcinoma); assay: MTT cytotoxicity, SAS; type: cell-based; conditions: 24 hours incubation
From the text: as §1, §2, §4

[11] = system: HepG2 Cancer Cells (Human hepatocellular carcinoma); assay: MTT cytotoxicity, HepG2; type: cell-based; conditions: HepG2, 24 hours incubation
From the text: as §1, §2, §4

[12] = system: NCI-N87 (Human gastric carcinoma); assay: MTT cytotoxicity, NCI-N87; type: cell-based; conditions: NCI-N87, 24 hours incubation
From the text: as §1, §2, §4

[13] = system: HCT-15 (Human colorectal cancer); assay: MTT cytotoxicity, HCT-15; type: cell-based; conditions: HCT-15, 24 hours incubation
From the text: as §1, §2, §4

[14] = system: A375 (human malignant melanoma); assay: MTT cytotoxicity, A375; type: cell-based; conditions: A375, 24 hours incubation
From the text: as §1, §2, §4

RBC (Human blood cell) = assay: Cytotoxicity, RBC; type: cell-based
From the text: as §2

Compound	IC50 (HFW (Human fibroblast)) [µM]	IC50 [1] [µM]	IC50 [2] [µM]	IC50 [3] [µM]	IC50 [4] [µM]	IC50 [5] [µM]	IC50 (Panc02) [µM]	IC50 [6] [µM]	IC50 [7] [µM]	IC50 [8] [µM]	IC50 [9] [µM]	IC50 [10] [µM]	IC50 [11] [µM]	IC50 [12] [µM]	IC50 [13] [µM]	IC50 [14] [µM]	IC50 (RBC (Human blood cell)) [µM]
CC(C)C[C@H](NC(=O)[C@H](Cc1ccc2ccccc2c1)NC(=O)[C@H](CCCCN)NC(=O)[C@H](CC(C)C)NC(=O)[C@H](Cc1c[nH]c2ccccc12)NC(=O)[C@H](CCCCN)NC(=O)[C@H](CCCNC(=N)N)NC(=O)[C@H](Cc1c[nH]c2ccccc12)NC(=O)[C@H](CCCCN)NC(=O)[C@H](CCCCN)NC(=O)[C@H](CCCCN)NC(=O)[C@H](CCCCN)NC(=O)[C@H](CCCCN)NC(=O)[C@H](CCCCN)NC(=O)[C@H](CCCCN)NC(=O)[C@@H](N)CCCCN)C(=O)N[C@@H](C)C(=O)N[C@@H](CCCCN)C(=O)N[C@@H](CCCCN)C(N)=O [SEQ ID NO: 2, KKKK-KK-KK-WRK-WLK-Nal-LA-KK-NH2] (HELM PEPTIDE1{K.K.K.K.K.K.K.K.W.R.K.W.L.K.[O=C([C@H](Cc1ccc2ccccc2c1)N[*:1])[*:2]].L.A.K.K.[am]}$$$$V2.0; N-terminus assumed)	11	9.03	10.1	8.5	13.7	13.4	7.17	4.36	6.34	16	15.5	15.8	11	8.58	6.6	5.59	45
CC(C)C[C@H](NC(=O)[C@H](Cc1ccc2ccccc2c1)NC(=O)[C@H](CCCCN)NC(=O)[C@H](CC(C)C)NC(=O)[C@H](Cc1c[nH]c2ccccc12)NC(=O)[C@H](CCCCN)NC(=O)[C@H](CCCNC(=N)N)NC(=O)[C@H](Cc1c[nH]c2ccccc12)NC(=O)[C@H](CCCCN)NC(=O)[C@H](CCCCN)NC(=O)[C@H](CCCCN)NC(=O)[C@H](CCCCN)NC(=O)[C@H](CCCCN)NC(=O)[C@@H](N)CCCCN)C(=O)N[C@@H](C)C(=O)N[C@@H](CCCCN)C(N)=O [SEQ ID NO: 3, KKKK-KK-WRK-WLK-Nal-LAK-NH2] (HELM PEPTIDE1{K.K.K.K.K.K.W.R.K.W.L.K.[O=C([C@H](Cc1ccc2ccccc2c1)N[*:1])[*:2]].L.A.K.[am]}$$$$V2.0; N-terminus assumed)	9.15	7.61	6.32	7.16	15.4	16.1	8.43	6.85	5.05	13.2	15.5	17.1	15.7	10.7	8.89	8.27	38.4
CC(C)C[C@H](NC(=O)[C@H](Cc1ccc2ccccc2c1)NC(=O)[C@H](CCCNC(=N)N)NC(=O)[C@H](CCCNC(=N)N)NC(=O)[C@H](CCCCN)NC(=O)[C@H](CCCCN)NC(=O)[C@H](CCCCN)NC(=O)[C@@H](N)CCCCN)C(=O)N[C@@H](C)C(=O)N[C@@H](CCCCN)C(N)=O [SEQ ID NO: 10, KKKK-RR-Nal-LAK-NH2] (HELM PEPTIDE1{K.K.K.K.R.R.[O=C([C@H](Cc1ccc2ccccc2c1)N[*:1])[*:2]].L.A.K.[am]}$$$$V2.0; N-terminus assumed)	488		55.4	41.8	136	93.5	75.2		46.3	56.8	35.1	98.4	84.8	82.9	57.6		
KKKKRRKKWLKWLKWLKKK-NH2 [SEQ ID NO: 4, KKKK-RR-KK-WLK-WLK-WLK-KK-NH2]	20.5	4.66	13.9	10.5	16.3	13.2	16	7.87	8.89	16.6	18	18.6	14.6	15.1	10.8	9.98	58.6
CC(C)C[C@H](NC(=O)[C@H](Cc1ccc2ccccc2c1)NC(=O)[C@H](CCCCN)NC(=O)[C@H](CC(C)C)NC(=O)[C@H](Cc1c[nH]c2ccccc12)NC(=O)[C@H](CCCCN)NC(=O)[C@H](CC(C)C)NC(=O)[C@H](Cc1c[nH]c2ccccc12)NC(=O)[C@H](CCCNC(=N)N)NC(=O)[C@H](CCCNC(=N)N)NC(=O)[C@H](CCCCN)NC(=O)[C@H](CCCCN)NC(=O)[C@H](CCCCN)NC(=O)[C@@H](N)CCCCN)C(=O)N[C@@H](CCCCN)C(=O)N[C@@H](CCCCN)C(N)=O [SEQ ID NO: 6, KKKK-RR-WLK-WLK-Nal-LKK-NH2] (HELM PEPTIDE1{K.K.K.K.R.R.W.L.K.W.L.K.[O=C([C@H](Cc1ccc2ccccc2c1)N[*:1])[*:2]].L.K.K.[am]}$$$$V2.0; N-terminus assumed)	7.2	6.84	10	8.46	10.5	5.56	8.81	3.36	7.07	12.7	16.4	15.6	14.2	9.41	8.03	10.8	35.4
KKKKKKKKWRKWLKWLAKK-NH2 [SEQ ID NO: 1, KKKK-KK-KK-WRK-WLK-WLA-KK-NH2]	16.3	9.35	16.7	13.3	19.2	14.6	13.4	8.48	7.19	21	18.8	14.7	13.4	17.1	12.2	10.6	52.6
